Among the data in patent US6559158B1, “Use of methylnaltrexone and related compounds to treat chronic opioid use side affects” (UR Labs, Inc., priority 1997, dated 2003) are oral-cecal transit time values, retold here.

The assay has as its system morphine-induced changes in oral-cecal transit time. The experiment in a line: Example 4: morphine-induced delay of oral-cecal transit time in subjects given opioids non-chronically. Format: in vivo, human. Particulars: placebo plus 0.05 mg/kg morphine, 12 subjects, mean±SD; baseline 104.6±31.1; p<0.01.

Experimental: Sessions were separated by at least 1 week. Each session lasted approximately 7 hours, and the subjects received one of three injections: (1) placebo plus placebo, (2) placebo plus 0.05 mg/kg morphine, or (3) 0.45 mg/kg methylnaltrexone plus 0.05 mg/kg morphine. Injection I was given at the first session, and the subjects were blinded to the medication. Injections 2 and 3 were given in a random order, and the subjects and observers were blinded to the medication. Injection assignments were prepared by random selection on a computer and were sealed in envelopes.
After completion of the above three injections, we asked six of the subjects, beginning with those who had completed the study last, to return for a fourth injection (0.45 mg/kg methylnaltrexone plus 0.1 mg/kg morphine). This was done to evaluate the effects of methylnaltrexone with a higher does of morphine.
Results of the hydrogen breath test after different injections were analyzed with the use of the Wilcoxon matched-pairs signed-rank test, with p<0.05 considered to be statistically significant.

With `CN1CC[C@]23c4c5ccc(O)c4O[C@H]2[C@@H](O)C=C[C@H]3[C@H]1C5.O=S(=O)(O)O` [Morphine, morphine sulfate], the oral-cecal transit time is 163.3 ± 39.8 min.
